The results in this text go back to patent US8802700B2 (Vertex Pharmaceuticals Incorporated, priority 2010, dated 2014).

The first assay deals with T1, ΔF508-CFTR (Homo sapiens, UniProt P13569, DEL508-508).
T1 construct: expressed in transfected cells
T1 sequence (P13569 with tags, fused parts or gaps DEL508-508): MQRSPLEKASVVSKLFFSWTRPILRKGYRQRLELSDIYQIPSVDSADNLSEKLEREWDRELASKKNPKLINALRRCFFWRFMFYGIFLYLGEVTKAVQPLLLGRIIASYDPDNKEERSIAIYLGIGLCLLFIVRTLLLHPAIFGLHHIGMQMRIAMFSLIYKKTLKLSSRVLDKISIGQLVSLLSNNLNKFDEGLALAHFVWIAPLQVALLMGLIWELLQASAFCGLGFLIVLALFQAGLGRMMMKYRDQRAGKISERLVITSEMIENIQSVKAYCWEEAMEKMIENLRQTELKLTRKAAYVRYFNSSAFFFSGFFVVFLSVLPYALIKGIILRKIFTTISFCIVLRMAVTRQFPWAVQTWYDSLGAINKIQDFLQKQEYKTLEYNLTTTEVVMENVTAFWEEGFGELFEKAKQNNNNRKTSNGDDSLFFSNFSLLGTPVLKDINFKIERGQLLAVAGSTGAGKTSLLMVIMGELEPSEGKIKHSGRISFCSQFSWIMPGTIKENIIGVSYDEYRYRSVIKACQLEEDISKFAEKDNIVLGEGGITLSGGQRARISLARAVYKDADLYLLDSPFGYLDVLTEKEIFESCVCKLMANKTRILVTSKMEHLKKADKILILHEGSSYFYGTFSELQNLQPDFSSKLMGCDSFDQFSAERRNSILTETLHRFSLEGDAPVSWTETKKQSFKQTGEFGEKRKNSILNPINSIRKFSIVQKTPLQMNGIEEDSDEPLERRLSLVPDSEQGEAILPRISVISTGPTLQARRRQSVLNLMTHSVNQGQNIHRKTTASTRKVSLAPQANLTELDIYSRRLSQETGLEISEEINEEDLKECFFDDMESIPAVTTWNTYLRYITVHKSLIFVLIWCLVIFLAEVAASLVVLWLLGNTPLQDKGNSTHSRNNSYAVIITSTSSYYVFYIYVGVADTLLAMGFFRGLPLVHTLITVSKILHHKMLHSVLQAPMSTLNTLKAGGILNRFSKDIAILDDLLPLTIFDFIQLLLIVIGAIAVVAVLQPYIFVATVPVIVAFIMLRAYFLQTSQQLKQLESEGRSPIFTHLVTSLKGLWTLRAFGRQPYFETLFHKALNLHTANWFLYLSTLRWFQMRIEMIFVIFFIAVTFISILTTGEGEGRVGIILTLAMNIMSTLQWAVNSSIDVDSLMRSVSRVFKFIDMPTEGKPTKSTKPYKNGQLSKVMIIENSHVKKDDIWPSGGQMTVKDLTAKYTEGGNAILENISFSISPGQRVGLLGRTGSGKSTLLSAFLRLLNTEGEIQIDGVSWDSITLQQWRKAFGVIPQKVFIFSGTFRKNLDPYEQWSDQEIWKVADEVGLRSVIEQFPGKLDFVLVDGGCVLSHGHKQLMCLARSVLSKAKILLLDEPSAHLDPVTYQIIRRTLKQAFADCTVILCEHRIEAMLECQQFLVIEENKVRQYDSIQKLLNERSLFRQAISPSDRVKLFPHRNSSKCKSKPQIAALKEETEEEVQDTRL
The experiment in a line: Membrane potential optical assay (FRET voltage-sensor dyes, VIPR), identification of potentiator compounds. The settings on record: Table 3; assay not given. The format is cell-based. From the text:
The optical membrane potential assay utilized voltage-sensitive FRET sensors described by Gonzalez and Tsien (See Gonzalez, J. E. and R. Y. Tsien (1995) “Voltage sensing by fluorescence resonance energy transfer in single cells” Biophys J 69(4): 1272-80, and Gonzalez, J. E. and R. Y. Tsien (1997) “Improved indicators of cell membrane potential that use fluorescence resonance energy transfer” Chem Biol 4(4): 269-77) in combination with instrumentation for measuring fluorescence changes such as the Voltage/Ion Probe Reader (VIPR) (See […]. Oades, et al. (1999) “Cell-based assays and instrumentation for screening ion-channel targets” Drug Discov Today 4(9): 431-439). These voltage sensitive assays are based on the change in fluorescence resonant energy transfer (FRET) between the membrane-soluble, voltage-sensitive dye, DiSBAC2(3), and a fluorescent phospholipid, CC2-DMPE, which is attached to the outer leaflet of the plasma membrane and acts as a FRET donor. Changes in membrane potential (Vm) cause the negatively charged DiSBAC2(3) to redistribute across the plasma membrane and the amount of energy transfer from CC2-DMPE changes accordingly. The changes in fluorescence emission were monitored using VIPRTM II, which is an integrated liquid handler and fluorescent detector designed to conduct cell-based screens in 96- or 384-well microtiter plates. To identify potentiators of ΔF508-CFTR, a double-addition HTS assay format was developed. During the first addition, a Cl^--free medium with or without test compound was added to each well. […] (in mM) NaCl 160, KCl 4.5, CaCl2 2, MgCl2 1, HEPES 10, pH 7.4 with NaOH. • Chloride-free bath solution: Chloride salts in Bath Solution #1 are substituted with gluconate salts. • CC2-DMPE: Prepared as a 10 mM stock solution in DMSO and stored at -20° C. • DiSBAC2(3): Prepared as a 10 mM stock in DMSO and stored at -20° C. NIH3T3 mouse fibroblasts stably expressing ΔF508-CFTR are used for optical measurements of membrane potential. […] For all optical assays, the cells were seeded at 30,000/well in 384-well matrigel-coated plates and cultured for 2 hrs at 37° C. before culturing at 27° C. for 24 hrs. for the potentiator assay.
Take `O=C(Nc1ccccc1-c1ccc(Cl)cc1Cl)c1c[nH]c2ccccc2c1=O` [Compound 139, N-[2-(2,4-dichlorophenyl)phenyl]-4-oxo-1H-quinoline-3-carboxamide]: the 50% effective concentration (EC50) (commonly the concentration that produces a half-maximal response) is less than 10 µM.

The same assay, now with this note: Table 3; assay not given; read-out: % Activity (% Efficacy, relative efficacy).
As for `COC(=O)[C@@H]1C[C@@H](OC(C)(C)C)CN1c1ccc(NC(=O)c2c[nH]c3ccccc3c2=O)c(C(F)(F)F)c1` [Compound 550, (2S,4R)-methyl 4-tert-butoxy-1-(4-(4-oxo-1,4-dihydroquinoline-3-carboxamido)-3-(trifluoromethyl)phenyl)pyrrolidine-2-carboxylate], the Emax lay in the range of 25 to 100%.
For `O=C(Nc1ccc(C(F)(F)F)cc1N1CCCCC1)c1c[nH]c2ccccc2c1=O` [Compound 514, 4-oxo-N-[2-(1-piperidyl)-4-(trifluoromethyl)phenyl]-1H-quinoline-3-carboxamide], the Emax was in the range of 25 to 100%.
Take `O=C(Nc1cc2c(cc1O)CCCC2)c1c[nH]c2ccccc2c1=O` [Compound 56, 1,4-dihydro-N-(1,2,3,4-tetrahydro-6-hydroxynaphthalen-7-yl)-4-oxoquinoline-3-carboxamide]: the Emax lay within 25 to 100%.
The same measure, in the same setting: the result for `CC(C)(C)c1ccc(NC(=O)c2c[nH]c3ccccc3c2=O)cc1CO` [Compound 6, N-[3-(hydroxymethyl)-4-tert-butyl-phenyl]-4-oxo-1H-quinoline-3-carboxamide] reads greater than 100%; that for `CC(C)(C)c1ccc(NC(=O)c2c[nH]c3ccccc3c2=O)cc1N1CCCCC1` [Compound 510, 4-oxo-N-[3-(1-piperidyl)-4-tert-butyl-phenyl]-1H-quinoline-3-carboxamide], 25 to 100%.
For `Cc1ccc(C(N)=O)c(NC(=O)c2c[nH]c3ccccc3c2=O)c1` [Compound 335, N-(2-carbamoyl-5-methyl-phenyl)-4-oxo-1H-quinoline-3-carboxamide], the Emax was less than 25%.
Take `CC(C)(C)c1cc(C(C)(C)C)c(NC(=O)c2c[nH]c3cc(O)ccc3c2=O)cc1O` [Compound 652, 7-hydroxy-N-(5-hydroxy-2,4-ditert-butyl-phenyl)-4-oxo-1H-quinoline-3-carboxamide]: the Emax was in the range of 25 to 100%.
In the case of `Cn1ccc2ccc(NC(=O)c3c[nH]c4ccccc4c3=O)cc21` [Compound 169, N-(1-methyl-1H-indol-6-yl)-4-oxo-1H-quinoline-3-carboxamide], the Emax lay within 25 to 100%.
Consider `CC(C)(C)OC(=O)N1CCc2ccc(NC(=O)c3c[nH]c4ccccc4c3=O)cc2C1` [Compound 107, 7-[(4-oxo-1H-quinolin-3-yl)carbonylamino]-1,2,3,4-tetrahydroisoquinoline-2-carboxylic acid tert-butyl ester], for which the Emax was in the range of 25 to 100%.
Regarding `CC(C)(C)c1ccc(NC(=O)c2c[nH]c3ccccc3c2=O)cc1S(N)(=O)=O` [Compound 268, 4-oxo-N-(3-sulfamoyl-4-tert-butyl-phenyl)-1H-quinoline-3-carboxamide], the Emax fell in the range of 25 to 100%.
`O=C(Nc1ccccc1-c1ccc(Cl)cc1Cl)c1c[nH]c2ccccc2c1=O` [Compound 139, N-[2-(2,4-dichlorophenyl)phenyl]-4-oxo-1H-quinoline-3-carboxamide]: the Emax was 25 to 100%.
`CCOc1ccccc1-c1ccc(CNC(=O)OC(C)(C)C)cc1NC(=O)c1c[nH]c2ccccc2c1=O` [Compound 304, {2′-Ethoxy-2-[(4-oxo-1,4-dihydroquinoline-3-carbonyl)-amino]-biphenyl-4-ylmethyl}-carbamic acid tert-butyl ester]: the Emax fell in the range of 25 to 100%.
As for `CC(C)n1cc(C(=O)Nc2ccccc2)c(=O)c2ccccc21` [Compound 29, 1-isopropyl-4-oxo-N-phenyl-1H-quinoline-3-carboxamide], the Emax was in the range of 25 to 100%.
As for `O=C(Nc1cc2[nH]ccc2cc1F)c1c[nH]c2cccc(O)c2c1=O` [Compound 596, N-(5-fluoro-1H-indol-6-yl)-5-hydroxy-4-oxo-1H-quinoline-3-carboxamide], the Emax is 25 to 100%.
For `CCOc1ccc(OCC)c(NC(=O)c2c[nH]c3ccccc3c2=O)c1` [Compound 264, N-(2,5-diethoxyphenyl)-4-oxo-1H-quinoline-3-carboxamide], the Emax fell in the range of 25 to 100%.
On to `O=C(Nc1cc(N2CCCC2)cc(C(F)(F)F)c1)c1c[nH]c2ccccc2c1=O` [Compound 593, 4-oxo-N-[3-pyrrolidin-1-yl-5-(trifluoromethyl)phenyl]-1H-quinoline-3-carboxamide], for which the Emax lay in the range of 25 to 100%.
With `CC(C)(C)c1cc(C(C)(C)C)c(NC(=O)c2c[nH]c3cc(F)c(F)cc3c2=O)cc1O` [Compound 672, 6,7-difluoro-N-(5-hydroxy-2,4-ditert-butyl-phenyl)-4-oxo-1H-quinoline-3-carboxamide], the Emax lay within 25 to 100%.
For the compound `Cc1cccc(-c2ccccc2NC(=O)c2c[nH]c3ccccc3c2=O)c1C` [Compound 401, N-[2-(2,3-dimethylphenyl)phenyl]-4-oxo-1H-quinoline-3-carboxamide], the Emax was in the range of 25 to 100%.
On the same count and under the same terms, the same measure for `CC1(C)CCCN(c2ccc(NC(=O)c3c[nH]c4ccccc4c3=O)c(C(F)(F)F)c2)C1` [Compound 612, N-[4-(3,3-dimethyl-1-piperidyl)-2-(trifluoromethyl)phenyl]-4-oxo-1H-quinoline-3-carboxamide]: 25 to 100%.
On the same count and under the same terms, the result for `O=C(Nc1ccc(Oc2cccnc2)cc1)c1c[nH]c2ccccc2c1=O` [Compound 614, 4-oxo-N-[4-(3-pyridyloxy)phenyl]-1H-quinoline-3-carboxamide] reads 25 to 100%.
Same read-out and setting: the same measure for `O=C(Nc1cccc2cccnc12)c1c[nH]c2ccccc2c1=O` [Compound 241, 4-oxo-N-(8-quinolyl)-1H-quinoline-3-carboxamide]: 25 to 100%.
For the compound `O=C(Nc1cccnc1)c1c[nH]c2ccccc2c1=O` [Compound 168, 4-oxo-N-(3-pyridyl)-1H-quinoline-3-carboxamide], the Emax is less than 25%.
For `CCOc1cccc2c(=O)c(C(=O)Nc3cc4[nH]ccc4cc3C(C)(C)C)c[nH]c12` [Compound 641, 8-ethoxy-4-oxo-N-(5-tert-butyl-1H-indol-6-yl)-1H-quinoline-3-carboxamide], the Emax was less than 25%.
On to `CC(C)(C)c1cc(C(C)(C)C)c(NC(=O)c2c[nH]c3cc(C#N)ccc3c2=O)cc1O` [Compound 548, 7-cyano-N-(5-hydroxy-2,4-ditert-butyl-phenyl)-4-oxo-1H-quinoline-3-carboxamide], for which the Emax was in the range of 25 to 100%.
Turning to `Cc1cccc2[nH]cc(C(=O)Nc3ccc(N4CCC[C@@H]4C)cc3C(F)(F)F)c(=O)c12` [Compound 511, (S)-5-methyl-N-(4-(2-methylpyrrolidin-1-yl)-2-(trifluoromethyl)phenyl)-4-oxo-1,4-dihydroquinoline-3-carboxamide], the Emax was in the range of 25 to 100%.
The same measure, in the same setting: the result for `O=C(Nc1ccccc1Cl)c1c[nH]c2ccccc2c1=O` [Compound 330, N-(2-chlorophenyl)-4-oxo-1H-quinoline-3-carboxamide] reads 25 to 100%; that for `Cc1cccc2[nH]cc(C(=O)Nc3ccc(OC(C)C)cc3C(F)(F)F)c(=O)c12` [Compound 547, N-[4-isopropoxy-2-(trifluoromethyl)phenyl]-5-methyl-4-oxo-1H-quinoline-3-carboxamide], greater than 100%; that for `CCOC(=O)[C@H]1CCCN(c2ccc(NC(=O)c3c[nH]c4ccccc4c3=O)c(C(F)(F)F)c2)C1` [Compound 660, (S)-ethyl 1-(4-(4-oxo-1,4-dihydroquinoline-3-carboxamido)-3-(trifluoromethyl)phenyl)piperidine-3-carboxylate], 25 to 100%.
As for `O=C(Nc1ccccc1)c1c[nH]c2cc(Cl)ccc2c1=O` [Compound 411, 7-chloro-4-oxo-N-phenyl-1H-quinoline-3-carboxamide], the Emax lay within 25 to 100%.
Same read-out and setting: the result for `O=C(Nc1ccc(C(F)(F)F)c(O)c1)c1c[nH]c2cccc(O)c2c1=O` [Compound 700, 5-hydroxy-N-[3-hydroxy-4-(trifluoromethyl)phenyl]-4-oxo-1H-quinoline-3-carboxamide] reads 25 to 100%.
Regarding `CC(C)(C)c1cc(F)c(NC(=O)c2c[nH]c3ccccc3c2=O)cc1O` [Compound 143, N-(2-fluoro-5-hydroxy-4-tert-butyl-phenyl)-4-oxo-1H-quinoline-3-carboxamide], the Emax fell in the range of 25 to 100%.
Regarding `O=C(Nc1ccc(OC(F)(F)F)cc1Cl)c1c[nH]c2ccccc2c1=O` [Compound 628, N-[2-chloro-4-(trifluoromethoxy)phenyl]-4-oxo-1H-quinoline-3-carboxamide], the Emax is 25 to 100%.
As for `O=C(Nc1ccccc1-c1ccccc1F)c1c[nH]c2ccccc2c1=O` [Compound 313, N-[2-(2-fluorophenyl)phenyl]-4-oxo-1H-quinoline-3-carboxamide], the Emax lay in the range of 25 to 100%.
In the case of `O=C(Nc1cc(C(F)(F)F)ccc1C(F)(F)F)c1c[nH]c2ccccc2c1=O` [Compound 630, N-[2,5-bis(trifluoromethyl)phenyl]-4-oxo-1H-quinoline-3-carboxamide], the Emax fell in the range of 25 to 100%.
